Results published in patent US4029805A, “Semisynthetic penicillins” (Hoffmann-La Roche Inc., priority 1976, dated 1977).
Like-named read-outs stand apart in the source and are kept apart here.

What was measured:
K. pneumoniae = assay: Curative dose against systemic K. pneumoniae infection; format: in vivo, mice; conditions: Klebsiella pneumoniae, in Mus musculus, read-out: CD50 (the source's name)
S. pyogenes = assay: Curative dose against systemic S. pyogenes infection; format: in vivo, mice; conditions: Streptococcus pyogenes, in Mus musculus, read-out: CD50 (the source's name)
S. typhosa [1] = assay: Curative dose against systemic S. typhosa infection; format: in vivo, mice; conditions: Mus musculus, sc, read-out: CD50 (the source's name)
S. schottmuelleri = assay: Curative dose against systemic S. schottmuelleri infection; format: in vivo, mice; conditions: Mus musculus
E. coli [2] = assay: Curative dose against systemic E. coli infection; format: in vivo, mice; conditions: Escherichia coli, in Mus musculus, read-out: CD50 (the source's name)
D. pneumoniae = assay: Curative dose against systemic D. pneumoniae infection; format: in vivo, mice; conditions: Streptococcus pneumoniae, in Mus musculus, read-out: CD50 (the source's name)
S. typhosa [3] = assay: Curative dose against systemic S. typhosa infection; format: in vivo, mice; conditions: Mus musculus, po
Protocol: (§1) In order to illustrate the relative activity of the compounds of this invention as compared to amoxicillin, the compounds, represented by the acetaldehyde derivative, were tested orally against systemic bacterial infections of mice with the following results. The CD50 is the curative dose in 50% of the animals treated against a challenge organism.

S. aureus = assay: Curative dose against systemic S. aureus infection; format: in vivo, mice; conditions: Staphylococcus aureus, in Mus musculus, read-out: CD50 (the source's name)
E. coli [4] = assay: Curative dose against systemic E. coli infection; format: in vivo, mice; conditions: Escherichia coli, in Mus musculus, po
Protocol: as §1

B. subtilis = assay: Stability in aqueous solution at room temperature, microbiological assay using B. subtilis; conditions: in words
Protocol: To illustrate the relative stability of the compounds of this invention in aqueous solution at room temperature the sodium salts of the compounds were tested as 20% by weight aqueous solutions for activity by microbiological assay using B. subtilis as the test organism and compared to 10% and 20% aqueous solutions of amoxicillin sodium salt and 10% aqueous solution of the acetone derivative of amoxicillin.

[5] = po, Table 3(b), po, acetaldehyde derivative comparison
[6] = po, benzaldehyde derivative comparison
[7] = po, butyraldehyde derivative comparison
[8] = po, hexaldehyde derivative comparison
[9] = po, propionaldehyde derivative comparison
[10] = sc, Table 3(b), sc, acetaldehyde derivative comparison
[11] = sc, benzaldehyde derivative comparison
[12] = sc, butyraldehyde derivative comparison
[13] = sc, hexaldehyde derivative comparison
[14] = sc, propionaldehyde derivative comparison
[15] = Table 3(b), acetaldehyde derivative comparison, read-out: CD50 (the source's name)
[16] = read-out: CD50, Table 2, PO, mice

## CC1(C)S[C@@H]2[C@H](NC(=O)[C@H](N)c3ccc(O)cc3)C(=O)N2[C@H]1C(=O)O [Amoxicillin, 6[(-)-alpha-amino-para-hydroxyphenylacetamido]-penicillanic acid]
K. pneumoniae; po, Table 2, PO, mice
  ED50: 10 mg/kg
K. pneumoniae; [5]
  ED50: 10 mg/kg
K. pneumoniae; [6]
  ED50: 75 mg/kg
K. pneumoniae; [7]
  ED50: 58 mg/kg
K. pneumoniae; [8]
  ED50: 59 mg/kg
K. pneumoniae; [9]
  ED50: 16 mg/kg
K. pneumoniae; [10]
  ED50: 12 mg/kg
K. pneumoniae; [11]
  ED50: 100 mg/kg
K. pneumoniae; [12]
  ED50: 22 mg/kg
K. pneumoniae; [13]
  ED50: 48 mg/kg
K. pneumoniae; [14]
  ED50: 17 mg/kg
S. pyogenes; po, Table 2, PO, mice
  ED50: 1.5 mg/kg
S. pyogenes; [5]
  ED50: 1.5 mg/kg
S. pyogenes; [6]
  ED50: 0.82 mg/kg
S. pyogenes; [7]
  ED50: 0.08 mg/kg
S. pyogenes; [8]
  ED50: 0.3 mg/kg
S. pyogenes; [9]
  ED50: 0.16 mg/kg
S. pyogenes; [10]
  ED50: < 0.05 mg/kg
S. pyogenes; [11]
  ED50: 0.31 mg/kg
S. pyogenes; [12]
  ED50: < 0.01 mg/kg
S. pyogenes; [13]
  ED50: 0.11 mg/kg
S. pyogenes; [14]
  ED50: 0.07 mg/kg
S. typhosa [1]; Table 3(b), acetaldehyde derivative comparison
  ED50: 6.3 mg/kg
S. typhosa [1]; benzaldehyde derivative comparison
  ED50: 0.56 mg/kg
S. typhosa [1]; butyraldehyde derivative comparison
  ED50: 1.3 mg/kg
S. typhosa [1]; hexaldehyde derivative comparison
  ED50: 3.3 mg/kg
S. typhosa [1]; propionaldehyde derivative comparison
  ED50: 2.8 mg/kg
S. schottmuelleri; po, Table 3(b), po, acetaldehyde derivative comparison, read-out: CD50 (the source's name)
  ED50: 5.3 mg/kg
S. schottmuelleri; po, benzaldehyde derivative comparison, read-out: CD50 (the source's name)
  ED50: 5.5 mg/kg
S. schottmuelleri; po, butyraldehyde derivative comparison, read-out: CD50 (the source's name)
  ED50: 5.9 mg/kg
S. schottmuelleri; po, hexaldehyde derivative comparison, read-out: CD50 (the source's name)
  ED50: 4.4 mg/kg
S. schottmuelleri; po, propionaldehyde derivative comparison, read-out: CD50 (the source's name)
  ED50: 5.7 mg/kg
S. schottmuelleri; po, read-out: CD50, Table 2, PO, mice
  ED50: 5.3 mg/kg
S. schottmuelleri; sc, Table 3(b), sc, acetaldehyde derivative comparison, read-out: CD50 (the source's name)
  ED50: 6.5 mg/kg
S. schottmuelleri; sc, benzaldehyde derivative comparison, read-out: CD50 (the source's name)
  ED50: 6.7 mg/kg
S. schottmuelleri; sc, butyraldehyde derivative comparison, read-out: CD50 (the source's name)
  ED50: 2.3 mg/kg
S. schottmuelleri; sc, hexaldehyde derivative comparison, read-out: CD50 (the source's name)
  ED50: 1 mg/kg
S. schottmuelleri; sc, propionaldehyde derivative comparison, read-out: CD50 (the source's name)
  ED50: 6.1 mg/kg
E. coli [2]; [6]
  ED50: 16 mg/kg
E. coli [2]; [7]
  ED50: 15 mg/kg
E. coli [2]; [8]
  ED50: 10 mg/kg
E. coli [2]; [9]
  ED50: 11 mg/kg
E. coli [2]; [10]
  ED50: 10 mg/kg
E. coli [2]; [11]
  ED50: 5.9 mg/kg
E. coli [2]; [12]
  ED50: 6 mg/kg
E. coli [2]; [13]
  ED50: 2.5 mg/kg
E. coli [2]; [14]
  ED50: 3.4 mg/kg
In vivo; ip
  LD50: 3460 mg/kg
In vivo; po
  LD50: > 10000 mg/kg
In vivo; sc
  LD50: 10000 mg/kg
D. pneumoniae; po, Table 2, PO, mice
  ED50: 10 mg/kg
D. pneumoniae; [5]
  ED50: 10 mg/kg
D. pneumoniae; [6]
  ED50: < 0.2 mg/kg
D. pneumoniae; [7]
  ED50: 2.7 mg/kg
D. pneumoniae; [8]
  ED50: 0.75 mg/kg
D. pneumoniae; [9]
  ED50: 1.1 mg/kg
D. pneumoniae; [10]
  ED50: 0.53 mg/kg
D. pneumoniae; [11]
  ED50: 0.14 mg/kg
D. pneumoniae; [12]
  ED50: 3.2 mg/kg
D. pneumoniae; [13]
  ED50: 0.07 mg/kg
D. pneumoniae; [14]
  ED50: 0.19 mg/kg
S. typhosa [3]; [15]
  ED50: 5 mg/kg
S. typhosa [3]; benzaldehyde derivative comparison, read-out: CD50 (the source's name)
  ED50: 1.3 mg/kg
S. typhosa [3]; butyraldehyde derivative comparison, read-out: CD50 (the source's name)
  ED50: 3.3 mg/kg
S. typhosa [3]; hexaldehyde derivative comparison, read-out: CD50 (the source's name)
  ED50: 3.7 mg/kg
S. typhosa [3]; propionaldehyde derivative comparison, read-out: CD50 (the source's name)
  ED50: 3.8 mg/kg
S. typhosa [3]; [16]
  ED50: 5.4 mg/kg
S. aureus; po, Table 2, PO, mice
  ED50: 1.2 mg/kg
S. aureus; [5]
  ED50: 1.2 mg/kg
S. aureus; [6]
  ED50: 4 mg/kg
S. aureus; [7]
  ED50: 0.29 mg/kg
S. aureus; [8]
  ED50: 0.72 mg/kg
S. aureus; [9]
  ED50: 0.41 mg/kg
S. aureus; [10]
  ED50: 2 mg/kg
S. aureus; [11]
  ED50: 0.16 mg/kg
S. aureus; [12]
  ED50: 0.5 mg/kg
S. aureus; [13]
  ED50: 0.79 mg/kg
S. aureus; [14]
  ED50: 0.47 mg/kg
E. coli [4]; [15]
  ED50: 6.4 mg/kg
E. coli [4]; [16]
  ED50: 6.4 mg/kg
B. subtilis
  stability in solution: very short stability in parenteral solutions
